Test results as given in US7300763B2, “Method of testing myelotoxicity with the use of flow cytometer” (Teijin Limited, priority 2000, dated 2007).

Columns and labels:
[1] = tested on: rat bone marrow cells; experiment: Observation of smears of bone marrow (May-Grünwald and Giemsa staining) in rats administered with 5-FU; type: in vivo; set-up: key to Number of Cells, Erythroblasts / Number of Cells, Immature Myelocytes: —: Undetected; conditions: 50 mg/kg/day intravenously
Description: (§1) (2) 5-Fluorouracil (hereinafter abbreviated to 5-FU) as a chemotherapeutic agent in a dose of 50 mg/kg/day ([…], 10 mL/kg) was intravenously administered to the rats, and a physiological saline solution was used as the control substance.
(§2) The days of the experiment were indicated by the day of starting the administration as day 0. Groups for collecting the bone marrow on the day 0 and day 5 of the experiment were respectively set as groups administered with the control substance. Groups for collecting the bone marrow from day 1 to day 5 of the experiment were respectively set as groups administered with the 5-FU. The number of animals in each group was 3.
(5) A part of bone marrow cells were suspended in an adequate amount of fetal bovine serum. An adequate amount of the resulting suspension was then dropped onto a slide glass, and a cover glass was obliquely applied to the droplet of the bovine fetal serum containing the bone marrow cells. The slide glass was directly moved to prepare smears (the wedge method). Each smear was subjected to May-Grünwald and Giemsa staining to carry out microscopic observation, and the ratio of the cells was calculated for each lineage and differentiation stage. After calculating the ratio, the resulting ratio was multiplied by the separately obtained number of bone marrow cells to determine the absolute number by observing the smear of each cell.
(7) Observation of smears was carried out for 500 bone marrow cells per individual (one smear).

[2] = tested on: rat bone marrow cells; experiment: Myelotoxicity by flow cytometer analysis of cell surface antigen-expressing bone marrow cells after administration of 5-FU; type: in vivo; conditions: 50 mg/kg/day intravenously; for Number of CD45 Peak 1-expressing cells / Number of CD45 Peak 2-expressing cells / Number of CD45R-expressing cells / Number of CD71-expressing cells / Number of CD90-expressing cells: n = 3
Description: (1) Six-week-old male CD (SD) IGS rats purchased from Charles River Japan were used at the age of 8 weeks. During the housing period, the rats were fed with a feed for animals (Oriental Yeast Co., Ltd., CRF-1) and drinking water (well water containing 0.4% of a hypochlorite added) ad libitum. The animals were housed in metal cages (one animal per cage) and kept under conditions of a temperature of 23±1° C. and a humidity of 55±15%.
(2) The bone marrow was collected from left and right femurs. The femurs were taken out under anaethesia with pentobarbital, and both ends of the femurs were cut. The bone marrow was then flushed out with 1 mL of fetal bovine serum using a syringe with a 25G injection needle. Bone pieces or the like were removed by using a Pasteur pipette, and cells were then collected by centrifugation (3,000 rpm for 5 minutes).
(3) To 20 μL of the cells collected in (2), was added 5 mL of a phosphate-buffer-solution (PBS). Thereby, a cell suspension was obtained.
(4) To 200 μL of the cell suspension in (3), was added 2 μg of a specific antibody to the cell surface antigen. Incubation was carried out at room temperature for 45 minutes. Mouse IgG2a anti-rat CD2, mouse IgG1 anti-rat CD8, mouse IgA anti-rat CD11b, mouse IgG1 anti-rat CD45, mouse IgG2b anti-rat CD45R, mouse IgG2a anti-rat CD71 and mouse IgG2a anti-rat CD90 were used as the antibody. Mouse IgG1, mouse IgG2a, mouse IgG2b and mouse IgA were used as the isotype control antibody. All the antibodies labeled with fluorescein (FITC) (Pharmingen.) were used as the antibody.
(5) After incubation, 1 mL of Optilyse C (Beckman Coulter.) was added, and treatment was carried out for 10 minutes to hemolyze erythrocytes. After the hemolytic treatment, 1 mL of PBS was added, and incubation was carried out at room temperature for 10 minutes.
(6) Procedures of adding 1 mL of PBS to a cell precipitation obtained by centrifugation (3,000 rpm for 5 minutes) after incubation and thereby washing the cells were repeated twice.
(7) After washing, 2 mL of PBS was added to the cell precipitation to provide a cell suspension. Analysis was carried out with the use of a flow cytometer (EPICS XL-MCL, Beckman Coulter.) The analysis was conducted by following procedures described below. […] The fluorescence detector sensitivity of the flow cytometer was adjusted with the cells treated with the isotype antibody.
as §1, §2
(4) Bone marrow collection, antibody treatment and analysis with the flow cytometer were carried out according to Example 1. A flow count (Beckman Coulter.) was added to the cell suspension during the flow cytometer analysis, and a calibration region was set on the cytogram of EPIS XL-MCL to make measurement. The absolute number of the respective cell surface antigen-expressing cells was calculated. Mouse IgGI anti-rat CD45, mouse IgG2b anti-rat CD45R, mouse IgG2a anti-rat CD71 and mouse IgG2a anti-rat CD90 were used as the antibody, and mouse IgG1, mouse IgG2a and mouse IgG2b were used as the isotype control antibody.
(6) The expression of cell surface antigens was measured for 15,000 bone marrow cells per individual with the use of the flow cytometer.

O=c1[nH]cc(F)c(=O)[nH]1 [5-FU, 5-Fluorouracil]
Number of Cells, Erythroblasts ([1]; Day 1, Mean ± SD, n = 3): 0.18 ± 0.07 ×10^6/μL
Number of Cells, Immature Myelocytes ([1]; Day 1, Mean ± SD, n = 3): 0.20 ± 0.10 ×10^6/μL
Number of Cells, Lymphocytes ([1]; Day 1, Mean ± SD, n = 3): 2.01 ± 0.86 ×10^6/μL
Number of Cells, Mature Myelocytes ([1]; Day 1, Mean ± SD, n = 3): 0.49 ± 0.22 ×10^6/μL
Number of Cells, Erythroblasts ([1]; Day 2, Mean ± SD, n = 3): 0.02 ± 0.03 ×10^6/μL
Number of Cells, Immature Myelocytes ([1]; Day 2, Mean ± SD, n = 3): 0.09 ± 0.04 ×10^6/μL
Number of Cells, Lymphocytes ([1]; Day 2, Mean ± SD, n = 3): 1.46 ± 0.21 ×10^6/μL
Number of Cells, Mature Myelocytes ([1]; Day 2, Mean ± SD, n = 3): 0.95 ± 0.32 ×10^6/μL
Number of Cells, Erythroblasts ([1]; Day 3, Mean ± SD, n = 3): 0.003 ± 0.001 ×10^6/μL
Number of Cells, Immature Myelocytes ([1]; Day 3, Mean ± SD, n = 3): 0.003 ± 0.001 ×10^6/μL
Number of Cells, Lymphocytes ([1]; Day 3, Mean ± SD, n = 3): 0.62 ± 0.13 ×10^6/μL
Number of Cells, Mature Myelocytes ([1]; Day 3, Mean ± SD, n = 3): 0.39 ± 0.03 ×10^6/μL
Number of Cells, Erythroblasts ([1]; Day 4, Mean ± SD, n = 3): 0.001 ± 0.001 ×10^6/μL
Number of Cells, Lymphocytes ([1]; Day 4, Mean ± SD, n = 3): 0.56 ± 0.20 ×10^6/μL
Number of Cells, Mature Myelocytes ([1]; Day 4, Mean ± SD, n = 3): 0.12 ± 0.02 ×10^6/μL
Number of Cells, Immature Myelocytes ([1]; Day 4, n = 3): —
Number of Cells, Lymphocytes ([1]; Day 5, Mean ± SD, n = 3): 0.51 ± 0.08 ×10^6/μL
Number of Cells, Mature Myelocytes ([1]; Day 5, Mean ± SD, n = 3): 0.03 ± 0.01 ×10^6/μL
Number of Cells, Erythroblasts ([1]; Day 5, n = 3): —
Number of Cells, Immature Myelocytes ([1]; Day 5, n = 3): —
Change of erythroblasts, in words ([1]; day 1 to day 5): decreased to such an extent of the scarcely observed cells on day 3 of the experiment and thereafter
Change of immature myelocytes, in words ([1]; day 1 to day 5): decreased to such an extent of the scarcely observed cells on day 3 of the experiment and thereafter
Change of lymphocytes, in words ([1]; day 1 to day 5): decreased on day 3 of the experiment and thereafter
Change of number of mature myelocytes, in words ([1]; day 1 to day 5): temporarily increased from day 1 to day 3 of the experiment and then decreased on day 4 of the experiment and thereafter
Number of CD45 Peak 1-expressing cells ([2]; Day 1, Mean ± SD): 1.65 ± 0.68 ×10^6/μL
Number of CD45 Peak 2-expressing cells ([2]; Day 1, Mean ± SD): 0.76 ± 0.32 ×10^6/μL
Number of CD45R-expressing cells ([2]; Day 1, Mean ± SD): 1.54 ± 0.69 ×10^6/μL
Number of CD71-expressing cells ([2]; Day 1, Mean ± SD): 0.46 ± 0.17 ×10^6/μL
Number of CD90-expressing cells ([2]; Day 1, Mean ± SD): 1.76 ± 0.79 ×10^6/μL
Number of CD45 Peak 1-expressing cells ([2]; Day 2, Mean ± SD): 1.20 ± 0.32 ×10^6/μL
Number of CD45 Peak 2-expressing cells ([2]; Day 2, Mean ± SD): 0.82 ± 0.20 ×10^6/μL
Number of CD45R-expressing cells ([2]; Day 2, Mean ± SD): 1.46 ± 0.27 ×10^6/μL
Number of CD71-expressing cells ([2]; Day 2, Mean ± SD): 0.30 ± 0.15 ×10^6/μL
Number of CD90-expressing cells ([2]; Day 2, Mean ± SD): 1.58 ± 0.18 ×10^6/μL
Number of CD45 Peak 1-expressing cells ([2]; Day 3, Mean ± SD): 0.34 ± 0.13 ×10^6/μL
Number of CD45 Peak 2-expressing cells ([2]; Day 3, Mean ± SD): 0.75 ± 0.25 ×10^6/μL
Number of CD45R-expressing cells ([2]; Day 3, Mean ± SD): 0.59 ± 0.11 ×10^6/μL
Number of CD71-expressing cells ([2]; Day 3, Mean ± SD): 0.09 ± 0.05 ×10^6/μL
Number of CD90-expressing cells ([2]; Day 3, Mean ± SD): 0.49 ± 0.10 ×10^6/μL
Number of CD45 Peak 1-expressing cells ([2]; Day 4, Mean ± SD): 0.05 ± 0.02 ×10^6/μL
Number of CD45 Peak 2-expressing cells ([2]; Day 4, Mean ± SD): 0.64 ± 0.24 ×10^6/μL
Number of CD45R-expressing cells ([2]; Day 4, Mean ± SD): 0.41 ± 0.12 ×10^6/μL
Number of CD71-expressing cells ([2]; Day 4, Mean ± SD): 0.02 ± 0.02 ×10^6/μL
Number of CD90-expressing cells ([2]; Day 4, Mean ± SD): 0.16 ± 0.06 ×10^6/μL
Number of CD45 Peak 1-expressing cells ([2]; Day 5, Mean ± SD): 0.03 ± 0.02 ×10^6/μL
Number of CD45 Peak 2-expressing cells ([2]; Day 5, Mean ± SD): 0.51 ± 0.06 ×10^6/μL
Number of CD45R-expressing cells ([2]; Day 5, Mean ± SD): 0.32 ± 0.08 ×10^6/μL
Number of CD71-expressing cells ([2]; Day 5, Mean ± SD): 0.02 ± 0.01 ×10^6/μL
Number of CD90-expressing cells ([2]; Day 5, Mean ± SD): 0.09 ± 0.02 ×10^6/μL
Change of number of CD45 (Peak 1)-expressing cells, in words ([2]; day 1 to day 5): began decreasing in a period between day 1 and day 2 of the experiment and was decreased to such an extent of the scarcely observed expressing cells on day 4 of the experiment
Change of number of CD45 (Peak 2)-expressing cells, in words ([2]; day 1 to day 5): A decrease was not observed
Change of number of CD45R-expressing cells, in words ([2]; day 1 to day 5): the decrease continued on day 3 of the experiment and thereafter
Change of number of CD71-expressing cells, in words ([2]; day 1 to day 5): decreased to such an extent of the scarcely observed expressing cells on day 3 of the experiment and thereafter
Change of number of CD90-expressing cells, in words ([2]; day 1 to day 5): markedly decreased on day 3 of the experiment and thereafter
